Assay results reported in patent publication US11596622B2, “Mazindol treatment for heroin dependence and substance use disorder” (NLS Pharmaceutics AG, priority 2017, dated 2023).

What was measured:
5-HT7(h) = target: T1, 5-HT7(h) (Homo sapiens, UniProt P34969); assay: Radioligand binding, 5-HT7 (Eurofins CEREP); settings: 1.0 × 10^−05 M; agonist radioligand; read-out: percent inhibition of the binding of a radioactively labeled ligand
T1 construct: Eurofins CEREP
Text: (§1) Table A discloses mazindol and Met tested at […] and the compound binding calculated as a percent inhibition of the binding of a radioactively labeled ligand specific for each target (Eurofins CEREP, France).
(§2) An inhibition or stimulation of more than 50% is considered a significant effect of the test compounds. Fifty percent is a common cut-off for further investigation (i.e. determination of IC50 or EC50 values from concentration-response curves). Tables B and C display the binding profiles for Mazindol and Met.
(§3) The results are expressed as a percent of control specific binding obtained in the presence of the test compounds:
(§4) [formula] and as a percent inhibition of control specific binding obtained in the presence of the test compounds: […]

C57BL/6J mice = assay: Conditioned place preference induced by the drug itself; assay type: in vivo
Text: Conditioned place preference (CPP) is a widely used procedure for studying the potential addictive effect of drugs. CPP is based upon the tendency of rodents to approach a stimulus that has previously been paired with an incentive state induced by a drug. A drug that induces a CPP may be suspected to present reinforcing effects that could lead to addiction. Numerous addictive drugs, such as opiate agonists or stimulants induce a CPP and a behavioral sensitization.
The effect of mazindol on place preference was examined in C57BL/6J mice using a method similar to the one used by Schlussman et al. (9).
The second experiment consisted in determining the optimal dose of heroin which induces the most significant CPP. For this purpose, the CPP induced by heroin at 1.25, 2.5 and 5 mg/kg was examined.
(§5) Following the habituation session (on day 1), animals (N=72) were pseudo-randomly assigned to two groups, a Control group (N=12) and a Heroin group (N=60), in a way that there was no significant difference between the two groups for the total distance travelled in the apparatus and for the percentage of time spent and the percentage distance travelled in the grey compartment and in the striped compartment.
Animals received the following treatments immediately before drug sessions: • Control group: vehicle • Heroin group: heroin (1.25 mg/kg)
as §5, with “three” for “two”, “(N=12),” for “(N=12) and”, “(N=48) and a Mazindol group (N=12),” for “(N=60),”
Animals received the following treatments before drug sessions: • Control group: vehicle, i.p. immediately before session. • Heroin group: heroin (1.25 mg/kg), i.p. immediately before session. • MAZ 2 group: mazindol (2 mg/kg), i.p. 60 min before session.
Animals received the following treatments before preference session: • Control group: vehicle of mazindol, i.p. 60 min before testing. • Hero group: vehicle of mazindol, i.p. 60 min before testing. • Hero-Mz 1 group: mazindol (1 mg/kg), i.p. 60 min before testing. • Hero-Mz 2 group: mazindol (2 mg/kg), i.p. 60 min before testing. • Hero-A 1 group: D-amphetamine (1 mg/kg), i.p. 30 min before testing. • MAZ 2 group: vehicle of mazindol, i.p. 60 min before testing.

[1] = Pharmacokinetics of mazindol after oral administration; settings: immediate release formulation
Dopamine transporter(h) = target: T2, Dopamine transporter(h) (Homo sapiens, UniProt Q01959); assay: Radioligand binding, dopamine transporter (Eurofins CEREP); settings: 1.0 × 10^−05 M; antagonist radioligand; read-out: percent inhibition of the binding of a radioactively labeled ligand
T2 construct: Eurofins CEREP
T2 sequence (Q01959 whole entry): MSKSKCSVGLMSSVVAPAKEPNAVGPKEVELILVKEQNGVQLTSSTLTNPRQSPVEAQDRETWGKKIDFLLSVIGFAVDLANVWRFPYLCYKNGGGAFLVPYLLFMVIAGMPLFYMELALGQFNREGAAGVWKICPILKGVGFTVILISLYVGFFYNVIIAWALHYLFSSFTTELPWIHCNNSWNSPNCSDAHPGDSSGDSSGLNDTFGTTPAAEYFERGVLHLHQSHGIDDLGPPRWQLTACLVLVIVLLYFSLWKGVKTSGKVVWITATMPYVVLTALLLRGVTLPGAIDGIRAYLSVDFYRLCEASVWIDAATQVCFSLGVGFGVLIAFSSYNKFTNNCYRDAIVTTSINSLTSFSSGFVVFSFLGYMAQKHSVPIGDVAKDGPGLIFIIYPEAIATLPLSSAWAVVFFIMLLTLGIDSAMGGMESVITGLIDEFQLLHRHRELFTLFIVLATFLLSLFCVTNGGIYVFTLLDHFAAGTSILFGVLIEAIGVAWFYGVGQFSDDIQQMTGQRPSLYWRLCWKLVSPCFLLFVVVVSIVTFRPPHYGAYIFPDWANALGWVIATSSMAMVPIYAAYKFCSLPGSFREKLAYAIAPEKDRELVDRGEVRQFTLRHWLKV
Text: as §1
(§6) An inhibition or stimulation of more than 50% is considered a significant effect of the test compounds. Fifty percent is a common cut-off for further investigation (i.e. determination of IC50 or EC50 values from concentration-response curves).
as §3, §4

5-HT transporter(h) = target: T3, 5-HT transporter(h) (Homo sapiens, UniProt P31645); assay: Radioligand binding, 5-HT transporter (Eurofins CEREP); settings: 1.0 × 10^−05 M; antagonist radioligand; read-out: percent inhibition of the binding of a radioactively labeled ligand
T3 construct: Eurofins CEREP
T3 sequence (P31645 whole entry): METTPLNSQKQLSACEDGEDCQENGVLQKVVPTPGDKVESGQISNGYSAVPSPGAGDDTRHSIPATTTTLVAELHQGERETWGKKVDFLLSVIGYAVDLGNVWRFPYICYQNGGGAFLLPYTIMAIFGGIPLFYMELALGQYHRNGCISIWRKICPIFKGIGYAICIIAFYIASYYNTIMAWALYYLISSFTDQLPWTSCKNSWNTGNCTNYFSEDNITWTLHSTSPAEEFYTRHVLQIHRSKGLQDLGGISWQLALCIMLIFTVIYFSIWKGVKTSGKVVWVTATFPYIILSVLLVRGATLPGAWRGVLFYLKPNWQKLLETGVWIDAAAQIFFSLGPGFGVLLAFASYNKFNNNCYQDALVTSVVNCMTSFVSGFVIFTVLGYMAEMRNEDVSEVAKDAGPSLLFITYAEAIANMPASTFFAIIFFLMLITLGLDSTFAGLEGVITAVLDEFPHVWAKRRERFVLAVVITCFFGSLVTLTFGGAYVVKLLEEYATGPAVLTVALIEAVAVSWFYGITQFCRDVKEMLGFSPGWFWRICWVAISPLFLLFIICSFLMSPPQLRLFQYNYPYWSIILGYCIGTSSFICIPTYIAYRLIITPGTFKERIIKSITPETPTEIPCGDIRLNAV
Text: as §1, §6, §3, §4

H1(h) = target: T4, H1(h) (Homo sapiens, UniProt P35367); assay: Radioligand binding, H1 (Eurofins CEREP); settings: 1.0 × 10^−05 M; antagonist radioligand; read-out: percent inhibition of the binding of a radioactively labeled ligand
T4 construct: Eurofins CEREP
T4 sequence (P35367 whole entry): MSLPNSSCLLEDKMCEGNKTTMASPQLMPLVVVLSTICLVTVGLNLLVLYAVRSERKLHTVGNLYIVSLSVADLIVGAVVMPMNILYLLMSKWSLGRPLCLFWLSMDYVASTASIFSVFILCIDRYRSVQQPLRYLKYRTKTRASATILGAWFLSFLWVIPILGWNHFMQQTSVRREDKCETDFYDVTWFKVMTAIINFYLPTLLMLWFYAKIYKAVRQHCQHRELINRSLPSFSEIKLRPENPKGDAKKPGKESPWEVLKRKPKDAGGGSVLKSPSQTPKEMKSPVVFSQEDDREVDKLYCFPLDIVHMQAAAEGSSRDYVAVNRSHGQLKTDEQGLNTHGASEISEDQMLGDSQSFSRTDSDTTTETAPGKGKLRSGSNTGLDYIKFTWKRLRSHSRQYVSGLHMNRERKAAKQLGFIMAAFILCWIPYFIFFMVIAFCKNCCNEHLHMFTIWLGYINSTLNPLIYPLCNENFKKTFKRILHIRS
Text: as §1, §2, §3, §4

M1(h) = target: T5, M1(h) (Homo sapiens, UniProt P11229); assay: Radioligand binding, M1 (Eurofins CEREP); settings: 1.0 × 10^−05 M; antagonist radioligand; read-out: percent inhibition of the binding of a radioactively labeled ligand
T5 construct: Eurofins CEREP
T5 sequence (P11229 1-460): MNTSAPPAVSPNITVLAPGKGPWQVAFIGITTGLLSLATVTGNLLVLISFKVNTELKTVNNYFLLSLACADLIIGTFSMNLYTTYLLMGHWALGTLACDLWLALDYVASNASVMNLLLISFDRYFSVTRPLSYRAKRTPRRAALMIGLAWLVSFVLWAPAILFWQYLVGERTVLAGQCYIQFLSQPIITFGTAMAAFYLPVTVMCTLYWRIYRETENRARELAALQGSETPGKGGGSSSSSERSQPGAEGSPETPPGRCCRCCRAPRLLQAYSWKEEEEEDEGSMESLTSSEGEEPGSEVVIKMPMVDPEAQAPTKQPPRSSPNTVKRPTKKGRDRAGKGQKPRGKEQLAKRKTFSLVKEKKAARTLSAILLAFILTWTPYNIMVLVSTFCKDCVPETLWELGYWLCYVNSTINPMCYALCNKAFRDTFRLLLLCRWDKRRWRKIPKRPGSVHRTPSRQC
Text: as §1, §2, §3, §4

k (KOP) = target: T6, k (KOP) (Rattus norvegicus, UniProt P34975); assay: Radioligand binding, κ opioid receptor (Eurofins CEREP)
T6 construct: Eurofins CEREP
T6 sequence (P34975 whole entry): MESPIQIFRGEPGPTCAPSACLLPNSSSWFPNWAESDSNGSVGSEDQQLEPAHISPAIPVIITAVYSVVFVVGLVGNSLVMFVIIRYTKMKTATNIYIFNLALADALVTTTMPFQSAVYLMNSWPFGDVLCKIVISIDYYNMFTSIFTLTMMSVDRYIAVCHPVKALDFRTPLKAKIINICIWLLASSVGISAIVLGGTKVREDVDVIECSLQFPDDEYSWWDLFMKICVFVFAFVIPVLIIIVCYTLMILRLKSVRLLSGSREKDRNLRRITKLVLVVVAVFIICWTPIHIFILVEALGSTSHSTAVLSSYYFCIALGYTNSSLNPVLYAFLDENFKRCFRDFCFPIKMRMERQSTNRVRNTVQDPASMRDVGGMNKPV
Text: as §1, §2, §3, §4

[2] = target: T7, Norepinephrine transporter (h) (Homo sapiens, UniProt P23975); assay: Radioligand binding, norepinephrine transporter (Eurofins CEREP); settings: 1.0 × 10^−05 M; antagonist radioligand; read-out: percent inhibition of the binding of a radioactively labeled ligand
T7 construct: Eurofins CEREP
T7 sequence (P23975 whole entry): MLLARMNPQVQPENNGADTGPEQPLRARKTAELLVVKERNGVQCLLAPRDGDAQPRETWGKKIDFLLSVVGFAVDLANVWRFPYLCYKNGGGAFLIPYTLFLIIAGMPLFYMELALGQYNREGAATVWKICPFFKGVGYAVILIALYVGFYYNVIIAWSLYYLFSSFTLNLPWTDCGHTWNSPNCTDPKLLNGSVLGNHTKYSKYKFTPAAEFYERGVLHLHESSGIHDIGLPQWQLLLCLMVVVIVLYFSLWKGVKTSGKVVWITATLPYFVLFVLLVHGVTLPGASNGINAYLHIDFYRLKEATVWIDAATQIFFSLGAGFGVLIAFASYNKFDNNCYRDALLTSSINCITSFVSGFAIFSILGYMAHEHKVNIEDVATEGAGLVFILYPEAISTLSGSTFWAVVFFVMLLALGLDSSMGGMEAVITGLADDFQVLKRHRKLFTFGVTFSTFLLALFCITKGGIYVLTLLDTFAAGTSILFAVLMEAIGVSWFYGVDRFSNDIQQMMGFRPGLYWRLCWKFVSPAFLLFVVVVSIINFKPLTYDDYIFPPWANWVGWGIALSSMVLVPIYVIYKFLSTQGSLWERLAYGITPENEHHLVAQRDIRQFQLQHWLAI
Text: as §1, §2, §3, §4

[3] = MAZ 2: mazindol 2 mg/kg i.p. 60 min before drug sessions, vehicle before preference session, day 12, mean

T1 sequence (P34969 whole entry): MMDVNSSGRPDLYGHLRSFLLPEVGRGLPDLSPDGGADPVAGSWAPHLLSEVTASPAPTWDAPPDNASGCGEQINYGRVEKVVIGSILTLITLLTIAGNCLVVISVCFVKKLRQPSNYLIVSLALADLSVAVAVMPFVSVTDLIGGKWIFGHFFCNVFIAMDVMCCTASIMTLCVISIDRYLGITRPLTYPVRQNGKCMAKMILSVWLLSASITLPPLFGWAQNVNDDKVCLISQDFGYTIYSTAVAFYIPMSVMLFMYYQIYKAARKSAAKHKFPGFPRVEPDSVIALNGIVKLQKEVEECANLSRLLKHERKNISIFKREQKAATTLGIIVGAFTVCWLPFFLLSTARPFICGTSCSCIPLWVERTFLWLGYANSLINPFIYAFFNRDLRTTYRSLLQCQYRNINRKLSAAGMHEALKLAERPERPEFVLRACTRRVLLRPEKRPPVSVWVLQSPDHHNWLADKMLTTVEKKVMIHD

OC1(c2ccc(Cl)cc2)c2ccccc2C2=NCCN21 (stereo not shown) [Mazindol, 5-(4-chlorophenyl)-2,5-dihydro-3 H-imadazo[2,1-a]isoindol-5-ol]
inhibition at 10 µM (5-HT7(h)): 52.9% | Distance travelled in the drug-paired compartment (C57BL/6J mice; [3]): 9013.0 cm | Distance travelled in the two compartments (Drug + Vehicle) (C57BL/6J mice; [3]): 14858.2 cm | Distance travelled in the vehicle-paired compartment (C57BL/6J mice; [3]): 5845.2 cm | Distance travelled, drug-paired minus vehicle-paired compartment (C57BL/6J mice; [3]): 3167.8 cm | Time spent in the drug-paired compartment (C57BL/6J mice; [3]): 1077.3 s | Time spent in the vehicle-paired compartment (C57BL/6J mice; [3]): 722.7 s | Time spent, drug-paired minus vehicle-paired compartment (C57BL/6J mice; [3]): 354.6 s | place preference induced by the drug (C57BL/6J mice; mazindol 2 mg/kg i.p. before drug sessions): induced a place preference | time to steady-state concentrations [1]: 30 to 55 h | inhibition at 10 µM (Dopamine transporter(h)): 98.2% | inhibition at 10 µM (5-HT transporter(h)): 99.5% | inhibition at 10 µM (H1(h)): 75.3% | inhibition at 10 µM (M1(h)): 52.1% | affinity for κ-opioid receptors (k (KOP)): modest affinity | inhibition at 10 µM [2]: 100%
